Assay [1] has as its system Patched pathway in ptc-null cells. Description: Ptc-null assay (gli-1 mRNA by RT-PCR and real-time PCR). Particulars: 3 days, 5 μM. The format is cell-based, mouse. As for the experimental part: […] Total ribonucleic acid (RNA) was isolated from the cells and used for reverse transcriptase-polymerase chain reaction (RT-PCR). […] The gli-1 and actin mRNA samples were then loaded on 1.5% agarose gel and were detected by staining with ethidium bromide. The same samples were analyzed by the quantitative real-time polymerase chain reaction method to quantify the levels of gli-1 mRNA.

Assay [2] has as its system Patched pathway / ultraviolet radiation-induced BCC tumors. Description: Adult BCC mouse skin punch assay. The format is cell-based. The settings on record: positive control, 6 days, vs vehicle. As for the experimental part:
Ptc heterozygous transgenic mice were irradiated 3 times weekly for 6 months, during which time many small, and often microscopic, BCC tumors developed. Four-mm diameter skin punch explants, presumably containing BCC structures, were cultured for 6 days in the presence of vehicle, the positive control (jervine), or 5 μM D. At the end of the experiment, the explants were analyzed by X-gal staining to detect the level of Patched pathway activity, by histology to determine the effect of treatment on the morphology of ultraviolet radiation-induced BCCs, and by quantifying the level of gli-1 mRNA expression to characterize the extent of pathway inhibition.

For `CC1=C2C(=O)[C@H]3[C@@H](CC=C4C[C@@H](O)CC[C@@]43C)[C@@H]2CC[C@]12O[C@@H]1C[C@H](C)CN[C@H]1[C@H]2C` [jervine], the “gli-1 mRNA levels (quantitative real-time PCR)” value in assay [1] is on record as “downregulated”. Also, the “expression of gli-1 mRNA (RT-PCR, agarose gel)” value in assay [1] (vs vehicle) is “significantly decreased”. In addition, the “number and size of BCC structures (X-gal staining)” value in assay [2] is listed as “greatly decreased”.
